Source: patent US20210371385A1, “POLYMORPHIC AND AMORPHOUS FORMS OF ISOQUINOLINONE AND METHODS OF USE THEREOF” (Sojournix, Inc., priority 2018, published 2021)
Values after ≈ are worked out from the molar mass of the structure shown. Where two headings read alike, the source gives them in different places.

What was measured:
[1] = pKa determination, co-solvent potentiometric titration (Yasuda-Shedlovsky extrapolation); type: physicochemical; settings: 25.4 °C, MeOH co-solvent potentiometric, extrapolated to 0% co-solvent
Protocol: pKa determination and assignment was completed on SJB-01 (FIG. 1). About 2 mg of SJB-01 (100142-1-1) was titrated three times with varying concentrations of MeOH as co-solvent to generate a Yasuda-Shedlovsky plot (L100142-65-4, FIG. 2 and Table 1). Extrapolation of the Yasuda-Shedlovsky plot to 0% co-solvent determined the pKa's (FIG. 3), which are acidic 5.76, basic 3.03. Acidic pKa is in red and basic pKa is in blue.
(§1) pKa and log P/D data were collected using Pion PULSE Attain software. The Pion PULSE solutions consisted of using ionic strength adjusted water (0.15 M KCl), 0.5 M HCl and […] which were used for all titrations. Purge gas (argon) was used for HEPES (probe validation), KHP (KOH concentration determination), aqueous potentiometric and log P/D potentiometric titrations.
(§2) The Pion PULSE was equipped with an overhead variable speed stirrer, double junction Ag/AgCl pH probe, UV probe with a 1 cm pathlength, Carl-Zeiss spectrophotometer with 256-bit photodiode array, and a temperature probe. The pH of the instrument can range from 1.8-12.2. The compatible co-solvents are MeOH, EtOH, ACN, DMSO and 1,4-dioxane. pKa measurements were completed by either potentiometric or UV-metric methods. log P/D was measured using water saturated 1-octanol as the partitioning solvent. Data was refined using the Pion PULSE refine software.

[2] = Log P/D determination, pH-metric titration with 1-octanol; type: physicochemical
Protocol: Log P and log D were determined for SJB-01 free base using 1-octanol as the partition solvent (Table 2). Log P was experimentally determined to be 4.73 which is larger than the predicted value for the structure, the corresponding Bjerrum plot is shown in FIG. 6. A log D profile (FIG. 5) was constructed for SJB-01 based on the distribution of the API at a particular pH.
as §1, §2

[3] = Solubility by gravimetric method in 14 solvents; type: physicochemical; settings: for solubility at 2 days: organic solvent or mixture, thermodynamic from solid; for Solubility: Water:DMSO (9:1 vol)
Protocol: Solubility measurements were done by gravimetric method in 14 different solvents at two temperatures (23° C. and 50° C.). About 25-35 mg solid was dispensed in 2 mL vials and 0.75 mL solvent was added to form a slurry. The slurries were then stirred for two days. The vials were centrifuged and the supernatant was collected for solubility measurement by gravimetric method.

[4] = pKa measured by titration (Example 3); type: physicochemical; settings: measurable detection limit of 2
Protocol: The pKa value was measured by titration.

[5] = Log P/D7.4 by shake flask method, octanol-buffer; type: physicochemical; settings: pH 7.4, octanol-buffer two phase system
Protocol: The Log P/D7.4 value was determined by the shake flask method in an octanol-buffer two phase systems.

[6] = Chemical stability (oxygen, pH, light, PEG 400); type: physicochemical
[7] = Intrinsic Dissolution Rate (IDR); type: physicochemical; settings: FeSSIF media, presence of bile components
Protocol: The Intrinsic Dissolution Rate (IDR) was calculated for a beta polymorph form of SJB-01. A tablet of the compound was pressed and put into a dissolution chamber. It was subsequently measured how fast the substance was dissolved from the surface into the solvent. Initially, the experiment was performed in a standard buffer (0.001 M HCl pH 3.0), reflecting the stomach conditions at fastened state.
Due to the high impact of bile components on solubilisation of SJB-01, IDR was performed in FeSSIF media, reflecting the fed-state in humans.

[8] = Absorption of solid compound dosed orally in rats; type: in vivo, Sprague Dawley rats; settings: for bioavailability: Sprague Dawley, rat, in vivo, oral microsuspension, read-out: Absolute bioavailability
Protocol: The possibility of dosing SJB-01 orally as a solid was explored in rats, as a means to evaluate the developability of the compound. Clinical relevant doses (1, 5 and 10 mg/kg) were administered to rats as microsuspensions. Furthermore, to explore the role of particle size, a suspension (5 mg/kg) was administered as well for comparison.

[9] = Maximal absorbable dose (MAD) calculation; design: species or system humans
Protocol: The maximal absorbable dose (MAD) of SJB-01, as described by Curatolo (1998), can be calculated according to the following equation: […]
Using this equation, the maximal absorbable dose is 16 mg for SJB-01.

[10] = in vivo, 140 mg/kg
Protocol: Formulations for toxicological evaluation of SJB-01 were considered. The highest solubility was obtained with 100% PEG 400 and a mixture of Gelucire and PEG 400. Since a formulation with Gelucire:PEG required increased handling time, including dosing at ˜45° C., 100% PEG 400 was chosen for formulation purpose in the early toxicological evaluation including mini-MTD (maximum tolerated dose) and a 14 days toxicological dosing study. The maximum dose reached was 140 mg/kg-the highest possible dose achievable with PEG 400 as vehicle. […] From a formulation perspective, this can only be done by using Gelucire:PEG as a vehicle, under the assumption that a solution will lead to a higher bioavailability than dosing the compound in a PEG 400 suspension. In the table below, the maximum dose of SJB-01 given on a solubilized form is provided, taking into account the tolerated dose of the vehicle as well.

For `CCNn1c(C)c(C(=O)N[C@H](c2ccccc2)C2CC2)c2cccc(F)c2c1=O` [SJB-01, 2-Ethylamino-8-fluoro-3-methyl-1-oxo-1,2-dihydro-isoquinoline-4-carboxylic acid ((S)-cyclopropyl-phenyl-methyl)-amide], which “pKa (acidic)” value ([1]; acidic) is on record?
Its value is 5.76.

And the pKa ([1]; acidic, read-out: pKa (acidic))?
The pKa was 5.83 ± 0.11.

And the pKa ([1]; basic, read-out: pKa (basic))?
Its pKa is 3.03 ± 0.11.

And the logD ([2]; 1-octanol/water, pH 7.4, pH 7.40, 1-octanol, from log D profile, read-out: log D7.40)?
Its logD is 3.04.

And the logP ([2]; neutral species, 1-octanol:water, 25.3 °C, pH-metric, three titrations)?
Its logP is 4.73 ± 0.14.

What about the solubility at 2 days ([3]; ACN, 23 °C) of the same molecule?
Its solubility at 2 days is 62 mg/mL (≈ 158 mM).

And the solubility at 2 days ([3]; ACN, 50 °C)?
Its solubility at 2 days is 99 mg/mL (≈ 252 mM).

What about the solubility at 2 days ([3]; EtOAc, 23 °C) of the same molecule?
Its solubility at 2 days is 42 mg/mL (≈ 107 mM).

And the solubility at 2 days ([3]; EtOAc, 50 °C)?
Its solubility at 2 days is 67 mg/mL (≈ 170 mM).

What about the solubility at 2 days ([3]; EtOH, 23 °C) of the same molecule?
Its solubility at 2 days is greater than 42 mg/mL.

What about the solubility at 2 days ([3]; IPA:water (85:15 vol), 23 °C) of the same molecule?
Its solubility at 2 days is 27 mg/mL (≈ 68.6 mM).

And the solubility at 2 days ([3]; IPA:water (85:15 vol), 50 °C)?
Its solubility at 2 days is 60 mg/mL (≈ 152 mM).

What about the solubility at 2 days ([3]; IPAc, 23 °C) of the same molecule?
Its solubility at 2 days is 22 mg/mL (≈ 55.9 mM).

What about the solubility at 2 days ([3]; IPAc, 50 °C) of the same molecule?
Its solubility at 2 days is 37 mg/mL (≈ 94 mM).

What about the solubility at 2 days ([3]; MIBK, 23 °C) of the same molecule?
The solubility at 2 days was 40 mg/mL (≈ 102 mM).

What about the solubility at 2 days ([3]; MIBK, 50 °C) of the same molecule?
The solubility at 2 days was 61 mg/mL (≈ 155 mM).

What about the solubility at 2 days ([3]; MtBE, 23 °C) of the same molecule?
The solubility at 2 days was 8 mg/mL (≈ 20.3 mM).

What about the solubility at 2 days ([3]; MtBE, 50 °C) of the same molecule?
Its solubility at 2 days is 11 mg/mL (≈ 28 mM).

What about the solubility at 2 days ([3]; THF, 23 °C) of the same molecule?
Its solubility at 2 days is greater than 68 mg/mL.

What about the solubility at 2 days ([3]; THF, 50 °C) of the same molecule?
The solubility at 2 days was greater than 68 mg/mL.

And the Solubility ([3]; 23 °C)?
Its Solubility is “Nil”.

What about the Solubility ([3]; 50 °C) of the same molecule?
The Solubility was “Nil”.

What about the solubility at 2 days ([3]; acetic acid, 23 °C) of the same molecule?
Its solubility at 2 days is greater than 72 mg/mL.

And the solubility at 2 days ([3]; acetic acid, 50 °C)?
Its solubility at 2 days is greater than 72 mg/mL.

And the solubility at 2 days ([3]; acetone, 23 °C)?
Its solubility at 2 days is greater than 67 mg/mL.

And the solubility at 2 days ([3]; acetone, 50 °C)?
Its solubility at 2 days is greater than 67 mg/mL.

And the solubility at 2 days ([3]; dioxane, 23 °C)?
The solubility at 2 days was greater than 74 mg/mL.

And the solubility at 2 days ([3]; dioxane, 50 °C)?
The solubility at 2 days was greater than 74 mg/mL.

What about the solubility at 2 days ([3]; ethanol, EtOH, 50 °C) of the same molecule?
The solubility at 2 days was greater than 42 mg/mL.

What about the solubility at 2 days ([3]; isopropanol (IPA), IPA, 23 °C) of the same molecule?
Its solubility at 2 days is 29 mg/mL (≈ 73.7 mM).

What about the solubility at 2 days ([3]; isopropanol (IPA), IPA, 50 °C) of the same molecule?
The solubility at 2 days was 64 mg/mL (≈ 163 mM).

And the solubility at 2 days ([3]; MeOH, 23 °C, lot L100142-1-1)?
The solubility at 2 days was greater than 76 mg/mL.

What about the solubility at 2 days ([3]; MeOH, 50 °C, lot L100142-1-1) of the same molecule?
The solubility at 2 days was greater than 76 mg/mL.

And the pKa [4]?
The pKa was less than 2.

And the logP [5]?
Its logP is 3.3.

And the “Time stable in PEG 400” value ([6]; PEG 400, room temperature, covered from light)?
The value was “at least 4 months”.

What about the Compound decomposed ([6]; aqueous solution, extreme light exposure, 24 hr) of the same molecule?
Its Compound decomposed is 100%.

What about the “Stability to oxygen and pH” value ([6]; exposed to oxygen and pH 2, 4, 6, and 7.4) of the same molecule?
Its value is “stable”.

What about the Compound left ([6]; solid compound, extreme light exposure, 24 hr) of the same molecule?
Its Compound left is roughly 86%.

And the “IDR in FeSSIF media versus standard buffer” value [7]?
Its value is “not further increased”.

What about the bioavailability ([8]; 10 mg/kg) of the same molecule?
The bioavailability was roughly 30%.

And the bioavailability ([8]; 1 and 5 mg/kg)?
The bioavailability was roughly 20%.

And the “Bioavailability, comparison of particle size” value ([8]; oral, 5 mg/kg, particle size 10 and 50 μm)?
Its value is “no differences in bioavailability”.

What about the “Maximal absorbable dose (MAD)” value ([9]; MAD=S*Ka*SIWV*SITT, S solubility at pH 6.5) of the same molecule?
The value was 16 mg.

And the “Maximal absorbable dose (MAD)” value ([9]; humans, solubility in 0.001M HCl pH 3.0, data from the β-form)?
The value was 16 mg.

And the “Maximal absorbable dose (MAD)” value ([9]; humans, solubility in FaSSIF, data from the β-form)?
The value was 22 mg.

And the “Maximal absorbable dose (MAD)” value ([9]; humans, solubility in FeSSIF (fed state), data from the β-form)?
The value was 38 mg.

And the “Clinical observations at maximum dose reached” value [10]?
Its value is “no clinical observations”.
